PMC13350973, “Allosteric ensembles elucidate mechanisms of inhibition in the human soluble epoxide hydrolase” (Communications Biology, 2026)
Positions count from the first letter of the chain named. Each block holds one compound with its values, some of them ahead of it.

Experiments:
[1] = target: T1, human soluble epoxide hydrolase (sEH) C-terminal domain (Homo sapiens, UniProt P34913, C522S); experiment: single injection method kinetic ITC (KM); format: biochemical
T1 construct: gene EPHX2; CTD, amino acids 230–555
T1 sequence (P34913 230-555 C522S): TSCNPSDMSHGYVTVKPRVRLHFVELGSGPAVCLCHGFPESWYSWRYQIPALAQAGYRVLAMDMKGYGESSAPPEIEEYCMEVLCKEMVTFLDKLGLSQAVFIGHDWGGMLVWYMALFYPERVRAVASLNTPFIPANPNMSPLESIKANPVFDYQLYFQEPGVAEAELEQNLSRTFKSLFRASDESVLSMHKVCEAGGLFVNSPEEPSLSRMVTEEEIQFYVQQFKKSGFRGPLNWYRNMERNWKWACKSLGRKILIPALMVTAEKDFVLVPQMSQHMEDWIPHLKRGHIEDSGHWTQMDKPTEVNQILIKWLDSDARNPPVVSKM

[2] = target: T2, human soluble epoxide hydrolase (sEH) C-terminal domain (Homo sapiens, UniProt P34913, C423S); experiment: single injection method kinetic ITC (KM); format: biochemical
T2 construct: gene EPHX2; CTD, amino acids 230–555
T2 sequence (P34913 230-555 C423S): T1 sequence (P34913 230-555 C522S) with C194S, S293C

[3] = target: T3, human soluble epoxide hydrolase (sEH) C-terminal domain (Homo sapiens, UniProt P34913); experiment: single injection method kinetic ITC (KM); format: biochemical
T3 construct: gene EPHX2; CTD, amino acids 230–555
T3 sequence (P34913 230-555): T1 sequence (P34913 230-555 C522S) with S293C

[4] = target: T4, human soluble epoxide hydrolase (sEH) C-terminal domain, M3 mutant (Homo sapiens, UniProt P34913, R410A/C423S/S439A/R440A/K495A); experiment: UV spectra of washed covalent adduct of purified protein; fluorometric PHOME specific activity assay; format: binding
T4 construct: gene EPHX2; CTD, amino acids 230–555
T4 sequence (P34913 230-555 R410A/C423S/S439A/R440A/K495A): T1 sequence (P34913 230-555 C522S) with R181A, C194S, S210A, R211A, K266A, S293C

[5] = target: T3, human soluble epoxide hydrolase (sEH) C-terminal domain; experiment: spectrofluorometric hydrolysis assay with purified sEH CTD; format: biochemical

- Km [1]: 24 ± 2.58 µM
- Km [2]: 14.6 ± 0.52 µM
- Km [3]: 11.2 ± 0.46 µM
Structure (SMILES): CCCCCC1OC1C/C=C\C/C=C\C/C=C\CCCC(=O)O (centres unmarked) [14(15)-EET]

Structure (SMILES): CCCCC/C=C/C=C1/C(=O)C=C[C@@H]1C/C=C\CCCC(=O)O [15d-PGJ2]
- UV spectra of washed covalent adduct of purified protein; fluorometric PHOME spe [4]: 8.2 fold reduction in enzymatic specific activity

Structure (SMILES): COc1ccc2cc(C(C#N)OC(=O)CC3OC3c3ccccc3)ccc2c1 (centres unmarked) [PHOME, 3-phenyl-cyano(6-methoxy-2-naphthalenyl)methylester-2-oxiraneacetic acid]
- spectrofluorometric hydrolysis assay with purified sEH CTD [5]: (PHOME), which upon sEH enzymatic hydrolysis releases the fluorescent product 6-methoxy-2-naphtaldeyde (6M2N)
